The target of this assay is T1, r-wtGNE (hGNE1; recombinant wild type GNE) (Homo sapiens, UniProt Q9Y223).
T1 construct: recombinant full-length GNE; expressed in E. coli, partially purified (methods also name pcDNA3.1 vector)
T1 sequence (Q9Y223 1-722): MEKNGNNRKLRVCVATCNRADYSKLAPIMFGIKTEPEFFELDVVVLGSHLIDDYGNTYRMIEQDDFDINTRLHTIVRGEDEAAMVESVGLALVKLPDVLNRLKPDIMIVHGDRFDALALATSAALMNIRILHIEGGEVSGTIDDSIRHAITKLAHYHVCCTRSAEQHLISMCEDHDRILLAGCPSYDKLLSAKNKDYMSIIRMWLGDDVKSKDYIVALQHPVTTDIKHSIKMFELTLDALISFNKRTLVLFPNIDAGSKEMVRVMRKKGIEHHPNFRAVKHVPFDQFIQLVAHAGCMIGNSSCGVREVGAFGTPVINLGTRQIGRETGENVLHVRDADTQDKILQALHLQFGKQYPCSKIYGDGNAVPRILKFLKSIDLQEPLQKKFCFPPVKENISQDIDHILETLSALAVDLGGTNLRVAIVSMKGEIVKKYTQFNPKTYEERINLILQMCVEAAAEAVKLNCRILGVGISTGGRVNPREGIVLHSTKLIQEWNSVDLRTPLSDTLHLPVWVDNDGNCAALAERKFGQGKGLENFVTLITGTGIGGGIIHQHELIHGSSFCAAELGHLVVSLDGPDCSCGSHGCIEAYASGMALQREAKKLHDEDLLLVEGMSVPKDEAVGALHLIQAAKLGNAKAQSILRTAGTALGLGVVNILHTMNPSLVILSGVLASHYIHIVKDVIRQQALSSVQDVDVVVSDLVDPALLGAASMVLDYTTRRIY
The experiment in a line: SPR, GNE immobilised on gold chip. It counts as binding.

Take `C[C@H](C(=O)N[C@@H](Cc1ccccc1)[C@@H](O)CN1CCN(Cc2ccccc2)CC1)c1ccccc1` [LTC-181, (S)-N-((2 S,3 S)−4-(4-benzylpiperazin-1-yl)−3-hydroxy-1-phenylbutan-2-yl)−2-phenylpropanamide]: the Kd (commonly the free concentration of one partner at which half of the binding sites on the other are occupied at equilibrium, for simple one-to-one binding) came out at 3 mM.

The values above are taken from article PMC12673733, “Hydroxyethylamine & phthalimide analogs restoring defects due to GNE dysfunction: rare disease therapeutic significance” (Molecular Medicine, 2025).
